Reference: patent US8859535B2, “Hydroxy substituted isoquinolinone derivatives” (Novartis AG, priority 2011, dated 2014)

Assays:
[1] = biological target: T1, human MDM2 protein (amino acids 2-188) (Homo sapiens, UniProt Q00987); assay: p53-MDM2 TR-FRET assay (p53-MDM2 Assay 1); format: binding; conditions: 1.25 nM MDM2-biotinylated, 10 nM Cy5-p53 peptide; read-out: IC50 (μM) of p53-Hdm2 inhibition (TR-FRET) Assay 1
T1 construct: human MDM2 protein (amino acids 2-188); made in house
Procedure, shortened: (§1)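 C-terminally biotinylated MDM2 (aa 2-188, 1.25 nM) or MDM4 (aa 2-185, 2.5 nM) with Eu-streptavidin (0.625 nM), 15 min preincubation, then 10 nM Cy5-p53 peptide (aa18-26), 15 min room temperature; TR-FRET 665/620 nm ratio, IC50 by curve fit. Modified MDM2 Assay 2 uses 0.1 nM MDM2 and 0.1 nM Eu-streptavidin.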

[2] = biological target: T2, human MDM4 protein (amino acids 2-185) (Homo sapiens, UniProt O15151); assay: p53-MDM4 TR-FRET assay (p53-MDM4 Assay 1); format: binding; conditions: 2.5 nM MDM4-biotinylated, 10 nM Cy5-p53 peptide; read-out: IC50 (μM) of p53-Hdm4 inhibition (TR-FRET) Assay 1
T2 construct: human MDM4 protein (amino acids 2-185); made in house
T2 sequence (O15151 2-185): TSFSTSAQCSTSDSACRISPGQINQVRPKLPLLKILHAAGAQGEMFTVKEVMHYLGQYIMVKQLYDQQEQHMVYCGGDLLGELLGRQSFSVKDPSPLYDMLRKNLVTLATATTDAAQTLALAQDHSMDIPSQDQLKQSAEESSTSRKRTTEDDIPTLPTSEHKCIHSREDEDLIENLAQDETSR
Procedure, shortened: as §1

T1 sequence (Q00987 2-188): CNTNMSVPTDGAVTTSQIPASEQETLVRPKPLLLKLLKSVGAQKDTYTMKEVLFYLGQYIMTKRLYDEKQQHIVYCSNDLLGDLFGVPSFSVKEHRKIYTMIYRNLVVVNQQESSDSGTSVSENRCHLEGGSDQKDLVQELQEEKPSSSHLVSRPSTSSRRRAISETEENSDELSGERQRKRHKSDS

Structure (SMILES) | IC50 [1] [µM] | IC50 [2] [µM]
COc1ccc(C(O)(c2ccc(N3C(=O)Cc4cc(OC)c(OC(C)C)cc4[C@@H]3c3ccc(Cl)cc3)cc2)C(F)(F)F)cc1 (stereo partly drawn) [Example 7, (S)-1-(4-Chloro-phenyl)-7-isopropoxy-6-methoxy-2-{4-[2,2,2-trifluoro-1-hydroxy-1-(4-methoxy-phenyl)-ethyl]-phenyl}-1,4-dihydro-2H-isoquinolin-3-one] | 0.132 | 49.3
COc1cc2c(cc1OC(C)C)[C@H](c1ccc(Cl)cc1)N(c1ccc(C(C)(O)C3CN(C)C3)cc1)C(=O)C2 (stereo partly drawn) [Example 70, (S)-1-(4-Chloro-phenyl)-2-{4-[1-hydroxy-1-(1-methyl-azetidin-3-yl)-ethyl]-phenyl}-7-isopropoxy-6-methoxy-1,4-dihydro-2H-isoquinolin-3-one] | 0.0547 | 60.1
COc1cc2c(cc1OC(C)C)[C@H](c1ccc(Cl)cc1)N(c1ccc(C(C)(O)C3CCN(C=O)CC3)cc1)C(=O)C2 (stereo partly drawn) [Example 89, 4-(1-{4-[(S)-1-(4-Chloro-phenyl)-7-isopropoxy-6-methoxy-3-oxo-3,4-dihydro-1H-isoquinolin-2-yl]-phenyl}-1-hydroxy-ethyl)-piperidine-1-carbaldehyde] | 0.0028 | 2.39
COc1cc2c(cc1OC(C)C)[C@H](c1ccc(Cl)cc1)N(c1ccc(C(C)(O)C3CCN(CCC(F)(F)F)CC3)cc1)C(=O)C2 (stereo partly shown) [Example 86] | 0.0058 | 6.45
COc1cc2c(cc1OC(C)C)[C@H](c1ccc(Cl)cc1)N(c1ccc(C(C)(O)c3cn(C)cn3)cc1)C(=O)C2 (stereo partly drawn) [Example 13, (S)-1-(4-Chloro-phenyl)-2-{4-[1-hydroxy-1-(1-methyl-1H-imidazol-4-yl)-ethyl]-phenyl}-7-isopropoxy-6-methoxy-1,4-dihydro-2H-isoquinolin-3-one] | 0.0608 | 82.7
CNC(=O)N1CC(C(C)(O)c2ccc(N3C(=O)Cc4cc(OC)c(OC(C)C)cc4[C@@H]3c3ccc(Cl)cc3)cc2)C1 (stereo partly drawn) [Example 67, 3-(1-{4-[(S)-1-(4-Chloro-phenyl)-7-isopropoxy-6-methoxy-3-oxo-3,4-dihydro-1H-isoquinolin-2-yl]-phenyl}-1-hydroxy-ethyl)-azetidine-1-carboxylic acid methylamide] | 0.0152 | 16.7
COc1cc2c(cc1OC(C)C)[C@H](c1ccc(Cl)cc1)N(c1ccc(C(C)(O)C3CC4CCC(C3)S4(=O)=O)cc1)C(=O)C2 (mixture of isomers) [Example 172, (S)-1-(4-Chloro-phenyl)-2-{4-[1-(8,8-dioxo-8-thia-bicyclo[3.2.1]oct-3-yl)-1-hydroxy-ethyl]-phenyl}-7-isopropoxy-6-methoxy-1,4-dihydro-2H-isoquinolin-3-one] | 0.0079 | 8.05
COc1cc2c(cc1OC(C)C)[C@H](c1ccc(Cl)cc1)N(c1ccc([C@@](C)(O)C34CC5CC(CC(C5)C3)C4)cc1)C(=O)C2 (single isomer, unassigned) [Example 142] | 0.0054 | 13.2
COc1cc2c(cc1OC(C)C)[C@H](c1ccc(Cl)cc1)N(c1ccc(C(C)(O)C3CCC(F)(F)CC3)cc1)C(=O)C2 (stereo partly drawn) [Example 45, (S)-1-(4-Chloro-phenyl)-2-{4-[1-(4,4-difluoro-cyclohexyl)-1-hydroxy-ethyl]-phenyl}-7-isopropoxy-6-methoxy-1,4-dihydro-2H-isoquinolin-3-one] | 0.0089 | 17.4
COc1cc2c(cc1OC(C)C)[C@H](c1ccc(Cl)cc1)N(c1ccc(C(C)(O)C3CN(S(C)(=O)=O)C3)cc1)C(=O)C2 (stereo partly drawn) [Example 73, (S)-1-(4-Chloro-phenyl)-2-{4-[1-hydroxy-1-(1-methanesulfonyl-azetidin-3-yl)-ethyl]-phenyl}-7-isopropoxy-6-methoxy-1,4-dihydro-2H-isoquinolin-3-one] | 0.0179 | 18.9
COc1cc2c(cc1OC(C)C)[C@H](c1ccc(Cl)cc1)N(c1ccc(C(C)(O)C3CC4CCC(C3)N4C(C)C)cc1)C(=O)C2 (stereo partly drawn) [Example 110, (S)-1-(4-Chloro-phenyl)-2-{4-[1-hydroxy-1-(8-isopropyl-8-aza-bicyclo[3.2.1]oct-3-yl)-ethyl]-phenyl}-7-isopropoxy-6-methoxy-1,4-dihydro-2H-isoquinolin-3-one] | 0.0049 | 4.23
COc1cc2c(cc1OC(C)C)[C@H](c1ccc(Cl)cc1)N(c1ccc(C(C)(O)c3ccccn3)cc1)C(=O)C2 (stereo partly drawn) [Example 18, (S)-1-(4-Chloro-phenyl)-2-[4-(1-hydroxy-1-pyridin-2-yl-ethyl)-phenyl]-7-isopropoxy-6-methoxy-1,4-dihydro-2H-isoquinolin-3-one] | 0.0368 | 37.2
COc1cc2c(cc1OC(C)C)[C@H](c1ccc(Cl)cc1)N(c1ccc(C(C)(O)C34CCC(CC3)C4)cc1)C(=O)C2 (stereo partly drawn) [Example 138, (S)-2-[4-(1-Bicyclo[2.2.1]hept-1-yl-1-hydroxy-ethyl)-phenyl]-1-(4-chloro-phenyl)-7-isopropoxy-6-methoxy-1,4-dihydro-2H-isoquinolin-3-one] | 0.0062 | 7.54
COc1cc2c(cc1OC(C)C)[C@H](c1ccc(Cl)cc1)N(c1ccc(C(C)(O)C3CN(CCC(F)(F)F)C3)cc1)C(=O)C2 (stereo partly drawn) [Example 69, (S)-1-(4-Chloro-phenyl)-2-(4-{1-hydroxy-1-[1-(3,3,3-trifluoro-propyl)-azetidin-3-yl]-ethyl}-phenyl)-7-isopropoxy-6-methoxy-1,4-dihydro-2H-isoquinolin-3-one] | 0.0363 | 40.5
COc1cc2c(cc1OC(C)C)[C@H](c1ccc(Cl)cc1)N(c1ccc(C(C)(O)C3CNC3)cc1)C(=O)C2 (stereo partly drawn) [Example 65, (S)-2-[4-(1-Azetidin-3-yl-1-hydroxy-ethyl)-phenyl]-1-(4-chloro-phenyl)-7-isopropoxy-6-methoxy-1,4-dihydro-2H-isoquinolin-3-one] | 0.0423 | 41.2
COc1cc2c(cc1OC(C)C)[C@H](c1ccc(Cl)cc1)N(c1ccc([C@](C)(O)c3ccc(NC(C)=O)cc3)cc1)C(=O)C2 [Example 27, N-[4-((R)-1-{4-[(S)-1-(4-Chloro-phenyl)-7-isopropoxy-6-methoxy-3-oxo-3,4-dihydro-1H-isoquinolin-2-yl]-phenyl}-1-hydroxy-ethyl)-phenyl]-acetamide] | 0.0458 | 36.3
COc1cc2c(cc1OC(C)C)[C@H](c1ccc(Cl)cc1)N(c1ccc(C(C)(O)CNC(C)=O)cc1)C(=O)C2 (stereo partly drawn) [Example 29, N-(2-{4-[(S)-1-(4-Chloro-phenyl)-7-isopropoxy-6-methoxy-3-oxo-3,4-dihydro-1H-isoquinolin-2-yl]-phenyl}-2-hydroxy-propyl)-acetamide] | 0.143 | 39.7
COc1cc2c(cc1OC(C)C)[C@H](c1ccc(Cl)cc1)N(c1ccc([C@](C)(O)C3CC4CCC(C3)S4(=O)=O)cc1)C(=O)C2 (stereo partly drawn) [Example 173, (S)-1-(4-Chloro-phenyl)-2-{4-[(R)-1-(8,8-dioxo-8-thia-bicyclo[3.2.1]oct-3-yl)-1-hydroxy-ethyl]-phenyl}-7-isopropoxy-6-methoxy-1,4-dihydro-2H-isoquinolin-3-one] | 0.0943 | 41.4
CCN1CC(C(C)(O)c2ccc(N3C(=O)Cc4cc(OC)c(OC(C)C)cc4[C@@H]3c3ccc(Cl)cc3)cc2)C1 (stereo partly drawn) [Example 71, (S)-1-(4-Chloro-phenyl)-2-{4-[1-(1-ethyl-azetidin-3-yl)-1-hydroxy-ethyl]-phenyl}-7-isopropoxy-6-methoxy-1,4-dihydro-2H-isoquinolin-3-one] | 0.026 | 30.1
COc1cc2c(cc1OC(C)C)[C@H](c1ccc(Cl)cc1)N(c1ccc(C(C)(O)C34CCC(CC3)O4)cc1)C(=O)C2 (mixture of isomers) [Example 135, (S)-1-(4-Chloro-phenyl)-2-{4-[1-hydroxy-1-(7-oxa-bicyclo[2.2.1]hept-1-yl)-ethyl]-phenyl}-7-isopropoxy-6-methoxy-1,4-dihydro-2H-isoquinolin-3-one] | 0.00815 | 7.61
COc1cc2c(cc1OC(C)C)[C@H](c1ccc(Cl)cc1)N(c1ccc(C(C)(O)c3ccc(NC(C)=O)cc3)cc1)C(=O)C2 (mixture of isomers) [Example 21, N-[4-(1-{4-[(S)-1-(4-Chloro-phenyl)-7-isopropoxy-6-methoxy-3-oxo-3,4-dihydro-1H-isoquinolin-2-yl]-phenyl}-1-hydroxy-ethyl)-phenyl]-acetamide] | 0.0071 | 10.4
COc1cc2c(cc1OC(C)C)[C@H](c1ccc(Cl)cc1)N(c1ccc(C(C)(O)C3CCN(C)CC3)cc1)C(=O)C2 (mixture of isomers) [Example 34, (S)-1-(4-Chloro-phenyl)-2-{4-[1-hydroxy-1-(1-methyl-piperidin-4-yl)-ethyl]-phenyl}-7-isopropoxy-6-methoxy-1,4-dihydro-2H-isoquinolin-3-one] | 0.0051 | 5.23
COc1cc2c(cc1OC(C)C)[C@H](c1ccc(Cl)cc1)N(c1ccc(C(C)(O)C3CCN(C(N)=O)CC3)cc1)C(=O)C2 (stereo partly drawn) [Example 75, 4-(1-{4-[(S)-1-(4-Chloro-phenyl)-7-isopropoxy-6-methoxy-3-oxo-3,4-dihydro-1H-isoquinolin-2-yl]-phenyl}-1-hydroxy-ethyl)-piperidine-1-carboxylic acid amide] | 0.0043 | 4.95
